Nine molecules from ChEMBL document CHEMBL1201862, “PubChem BioAssay data set” (2004) can be followed below.

Data set [1] in a line: inhibitors of intracellular T. cruzi replication, confirmation, NIH3T3 host cells, beta-gal luminescence (AID 2044).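 Also: intracellular parasites grown in NIH/3T3 mouse fibroblasts as host cells; luminescent beta-galactosidase reporter signal from transgenic T. cruzi replicating inside host cells; inhibitors lower the luminescence signal.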 The data set is classed as functional, cell-based.
The test system of data set [2] is Streptococcus sp. 'group A'. The experiment in a line: growth inhibition of control SK(-) GAS strain, dose response, counter-screen for streptokinase expression inhibitor project, luminescence, kanamycin, BacTiterGlo, confirmation (AID 1900). The data set is classed as functional, organism-based. On the technique in general: Counterscreens check selectivity or assay interference.

Data set [3] can be described thus: HepG2 cell cytotoxicity, dose response, cytotoxicity control, ATP luminescence, cherry-pick, activator set 2 (AID 1053143). The data set is classed as functional, cell-based.
Another data set relates to Streptococcus. The experiment in a line: Group A Streptococcus viability loss, dose response, counter-screen for streptokinase expression inhibitor project, luminescence, BacTiterGlo (AID 1915).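 Also: potency for reduction of bacterial viability or growth.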 The data set is classed as functional, organism-based.
A short description of data set [4]: cytotoxicity toward NIH3T3 fibroblasts, dose response, counter-screen, cell-based, ATP luminescence, mouse fibroblasts (AID 2010).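 Also: cells exposed to compound for about 90 hours before reading.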 The data set is classed as functional.
The target of data set [5] is T1, Nuclear receptor subfamily 0 group B member 1 (Homo sapiens, UniProt P51843).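 Also: HEK293T cells transfected with SF-1 and DAX-1 plus StAR promoter luciferase reporter.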
T1 sequence (P51843 whole entry): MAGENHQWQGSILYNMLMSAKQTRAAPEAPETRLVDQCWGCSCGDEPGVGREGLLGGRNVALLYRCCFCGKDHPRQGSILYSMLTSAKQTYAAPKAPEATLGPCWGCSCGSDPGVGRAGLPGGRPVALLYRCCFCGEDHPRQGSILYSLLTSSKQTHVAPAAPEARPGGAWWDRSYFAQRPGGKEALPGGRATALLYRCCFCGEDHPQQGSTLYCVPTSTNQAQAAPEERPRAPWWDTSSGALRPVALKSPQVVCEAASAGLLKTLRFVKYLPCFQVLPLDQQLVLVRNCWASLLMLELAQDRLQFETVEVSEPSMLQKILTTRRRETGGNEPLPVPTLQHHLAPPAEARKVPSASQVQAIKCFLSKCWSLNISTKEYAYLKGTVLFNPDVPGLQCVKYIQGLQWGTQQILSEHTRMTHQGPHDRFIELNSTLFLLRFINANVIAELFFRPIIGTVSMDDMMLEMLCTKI
The data set is classed as functional, cell-based.

Data set [6] is described as follows: LGR2 antagonists, dose response, cell-based, HEK293, CRE-luciferase reporter, cherry pick, set 2 (AID 743343).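 Also: transfected cells were stimulated with diluted bursicon conditioned medium after compound addition.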 The data set is classed as functional. Background: In a reporter assay the amount or activity of a reporter protein is the signal.
The nature of a further data set: cells. The data set is classed as functional, cell-based.
In the next data set the test system is HT-1080. The data set can be described thus: cytotoxicity in HT1080 fibrosarcoma cells, cell-based, fluorescence readout (AID 620). The data set is classed as functional. The settings on record: Homo sapiens.
Data set [7] is described as follows: HepG2 cell cytotoxicity, dose response, cytotoxicity control, plate reader, cherry-pick, antagonist series (AID 743416). The data set is classed as functional, cell-based.
Data set [8] is described as follows: A549 cell cytotoxicity, dose response, cytotoxicity control, plate reader, cherry-pick, antagonist series (AID 743412). The data set is classed as functional, cell-based.
The target in data set [9] is Luciferin 4-monooxygenase (Photinus pyralis, UniProt P08659). The data set can be described thus: Counter Screen for Luciferase-based Assay Positives. [Related pubchem assays: 620, 618, 411 ].
A short description of data set [10]: MC4R antagonists, dose response, counter-screen for LGR2 antagonist project, cell-based, plate reader, cherry pick (AID 743444).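 Also: transfected HEK 293 cells stimulated with alpha-MSH peptide; potency of inhibitors of the alpha-MSH evoked signal.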 The data set is classed as functional.
For data set [11], the target named is T2, Sentrin-specific protease 8 (Homo sapiens, UniProt Q96LD8).
T2 sequence (Q96LD8 whole entry): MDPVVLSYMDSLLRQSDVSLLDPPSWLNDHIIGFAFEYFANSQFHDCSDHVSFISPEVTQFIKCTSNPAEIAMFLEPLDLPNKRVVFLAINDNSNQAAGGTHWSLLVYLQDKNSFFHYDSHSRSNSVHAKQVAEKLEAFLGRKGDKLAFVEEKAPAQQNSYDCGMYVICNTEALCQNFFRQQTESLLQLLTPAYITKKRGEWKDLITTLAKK
The data set is classed as functional.

Data set [12] deals with T2, Sentrin-specific protease 8. The data set is classed as functional. The source holds these as a separate data set.
A short description of data set [13]: Luminescence Cell-Based Dose Response HTS to Identify Activators of Luciferase Translation or Activity in H4 […] Cells. [Related pubchem assays: 1829 (Project Summary), 1814 (Primary HTS)]. The data set is classed as functional.
A short description of data set [14]: Luminescence Cell-Based Dose Response to Identify Activators of Luciferase Translation or Activity in H4-C Neuroglioblastoma Cells. [Related pubchem assays: 1829 (Project Summary), 1814 (Primary HTS)]. The data set is classed as functional.
The next data set concerns the target Cytochrome P450 2C9 (Homo sapiens, UniProt P11712).
Data set [15] can be described thus: growth inhibition of replicating M. tuberculosis, dose response, counter-screen, dry powder, IC90 (AID 651617). The settings on record: Mycobacterium tuberculosis. The data set is classed as functional.
A short description of data set [16]: inhibitors of non-replicating M. tuberculosis, dose response, luciferase, dry powder (AID 651620). The data set is classed as functional. The following applies: Mycobacterium tuberculosis.
A short description of data set [17]: Luminescence Cell-Based Dose Response to Identify Activators of 5'UTR Stem-Loop Driven Prion Protein mRNA Translation in H4-C Neuroglioblastoma Cells. [Related pubchem assays: 1829 (Project Summary), 1814 (Primary HTS)]. The data set is classed as functional.
The nature of data set [18]: HEK293T cell cytotoxicity, dose response, cytotoxicity control, CellTiter-Glo luminescence, dry powder, set 6 (AID 651949). The following applies: HEK293. The data set is classed as functional, cell-based. For orientation: Cellular ATP, detected with luciferase, serves as a proxy for viable cell number.
The nature of data set [19]: Luminescence Cell-Based Dose Confirmation to Identify Activators of 5'UTR Stem-Loop Driven Alpha-Synuclein mRNA Translation in H4 Neuroglioblastoma Cells. [Related pubchem assays: 1829 (Project Summary), 1814 (Primary HTS)]. The data set is classed as functional.
Data set [20] is described as follows: inhibitors of non-replicating M. tuberculosis, dose response, luciferase, dry powder (AID 651619). The settings on record: Mycobacterium tuberculosis. The data set is classed as functional.
In data set [21] the target is Potassium channel subfamily K member 3 (Homo sapiens, UniProt O14649). The experiment in a line: TASK1 (KCNK3) potassium channel inhibitors, SAR follow-up, CHO cells, FluxOR thallium flux (AID 652212). The data set is classed as functional.
Data set [22] deals with Potassium channel subfamily K member 9 (Homo sapiens, UniProt Q9NPC2). The data set can be described thus: TASK3 (KCNK9) channel inhibitors, thallium flux, SAR follow-up, selectivity assay for TASK1 inhibitor project, cell-based, FluxOR thallium flux, concentration-response (AID 652211).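 Also: potency is for inhibitors of the channel.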 The data set is classed as functional.
In data set [23] the target is Fructose-bisphosphate aldolase (Mycobacterium tuberculosis, UniProt P9WQA3). The experiment in a line: Fluorescence-based biochemical high throughput dose response assay for inhibitors of the fructose-bisphosphate aldolase (FBA) of M. tuberculosis. The data set is classed as functional.
Data set [24] concerns the target COUP transcription factor 2 (Homo sapiens, UniProt P24468). The experiment in a line: Luminescence-based cell-based high throughput dose response assay to identify inhibitors of COUP-TFII (NR2F2). The data set is classed as functional.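 Also: HEK293 cells transiently cotransfected with COUP-TFII expression vector and reporter; luciferase reporter luminescence driven by COUP-TFII from the pX2-168 reporter plasmid.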
For a further data set, the system named is HeLa. The experiment in a line: HeLa cell cytotoxicity, dose response, cytotoxicity control, ATP luminescence, cherry-pick samples (AID 687004). The data set is classed as functional, cell-based. The following applies: Homo sapiens.
The nature of data set [25]: HEK293T cytotoxicity, dose response, cytotoxicity control for miR-122 modulator project, cell-based, inhibitor set, cherry-pick, set 2 (AID 720697). The data set is classed as functional.

Calls of active or inactive are those of the source.

Potassium channel subfamily K member 3, sequence (O14649 whole entry): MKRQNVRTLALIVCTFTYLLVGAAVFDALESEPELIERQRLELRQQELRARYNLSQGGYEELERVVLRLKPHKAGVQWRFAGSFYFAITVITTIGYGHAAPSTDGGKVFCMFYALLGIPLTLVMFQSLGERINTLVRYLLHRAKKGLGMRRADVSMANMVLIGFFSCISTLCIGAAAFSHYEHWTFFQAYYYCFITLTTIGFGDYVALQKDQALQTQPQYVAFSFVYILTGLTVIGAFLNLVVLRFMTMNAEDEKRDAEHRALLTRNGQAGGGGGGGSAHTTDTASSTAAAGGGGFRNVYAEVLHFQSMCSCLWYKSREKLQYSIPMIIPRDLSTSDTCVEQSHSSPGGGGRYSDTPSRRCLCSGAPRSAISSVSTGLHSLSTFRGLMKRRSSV
Fructose-bisphosphate aldolase, sequence (P9WQA3 whole entry): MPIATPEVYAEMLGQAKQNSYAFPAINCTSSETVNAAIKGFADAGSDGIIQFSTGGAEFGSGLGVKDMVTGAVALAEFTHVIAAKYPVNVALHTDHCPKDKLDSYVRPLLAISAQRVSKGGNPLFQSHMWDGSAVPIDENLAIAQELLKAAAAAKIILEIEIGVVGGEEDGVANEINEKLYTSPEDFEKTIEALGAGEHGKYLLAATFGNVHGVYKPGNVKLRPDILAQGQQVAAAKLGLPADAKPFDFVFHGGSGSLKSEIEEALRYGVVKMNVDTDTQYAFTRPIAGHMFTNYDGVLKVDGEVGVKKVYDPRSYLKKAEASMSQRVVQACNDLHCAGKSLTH
Potassium channel subfamily K member 9, sequence (Q9NPC2 whole entry): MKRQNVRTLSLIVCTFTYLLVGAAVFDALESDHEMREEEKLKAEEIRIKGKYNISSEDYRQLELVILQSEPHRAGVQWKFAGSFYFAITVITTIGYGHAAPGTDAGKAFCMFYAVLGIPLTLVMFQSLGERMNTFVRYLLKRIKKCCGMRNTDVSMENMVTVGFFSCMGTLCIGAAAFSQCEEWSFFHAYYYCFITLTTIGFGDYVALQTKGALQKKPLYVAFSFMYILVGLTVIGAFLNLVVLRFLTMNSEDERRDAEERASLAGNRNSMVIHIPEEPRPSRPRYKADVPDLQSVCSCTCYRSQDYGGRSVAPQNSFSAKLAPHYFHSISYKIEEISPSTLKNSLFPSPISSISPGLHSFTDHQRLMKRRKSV
Cytochrome P450 2C9, sequence (P11712 whole entry): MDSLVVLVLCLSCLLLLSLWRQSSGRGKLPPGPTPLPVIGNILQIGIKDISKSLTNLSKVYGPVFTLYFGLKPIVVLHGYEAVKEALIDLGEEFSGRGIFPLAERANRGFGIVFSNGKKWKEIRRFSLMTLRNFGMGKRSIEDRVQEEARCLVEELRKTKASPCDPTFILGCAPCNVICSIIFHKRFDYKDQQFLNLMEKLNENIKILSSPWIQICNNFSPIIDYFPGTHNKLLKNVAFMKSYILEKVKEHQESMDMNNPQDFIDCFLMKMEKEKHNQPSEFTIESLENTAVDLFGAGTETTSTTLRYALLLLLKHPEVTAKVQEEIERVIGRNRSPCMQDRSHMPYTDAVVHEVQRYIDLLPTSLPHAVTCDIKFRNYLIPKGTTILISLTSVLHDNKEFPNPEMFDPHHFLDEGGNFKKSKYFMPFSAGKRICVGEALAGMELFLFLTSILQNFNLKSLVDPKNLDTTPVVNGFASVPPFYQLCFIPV
COUP transcription factor 2, sequence (P24468 whole entry): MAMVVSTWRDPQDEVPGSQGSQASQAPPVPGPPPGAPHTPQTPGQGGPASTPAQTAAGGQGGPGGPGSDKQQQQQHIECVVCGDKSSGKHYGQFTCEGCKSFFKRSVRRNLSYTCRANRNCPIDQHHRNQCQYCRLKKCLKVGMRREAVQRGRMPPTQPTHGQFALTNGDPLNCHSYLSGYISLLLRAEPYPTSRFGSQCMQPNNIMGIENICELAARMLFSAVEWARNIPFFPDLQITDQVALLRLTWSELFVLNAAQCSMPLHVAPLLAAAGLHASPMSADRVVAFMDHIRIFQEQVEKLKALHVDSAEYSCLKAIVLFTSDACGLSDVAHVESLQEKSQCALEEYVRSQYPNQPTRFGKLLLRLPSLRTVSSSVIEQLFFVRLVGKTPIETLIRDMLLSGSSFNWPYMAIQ
Luciferin 4-monooxygenase, sequence (P08659 whole entry): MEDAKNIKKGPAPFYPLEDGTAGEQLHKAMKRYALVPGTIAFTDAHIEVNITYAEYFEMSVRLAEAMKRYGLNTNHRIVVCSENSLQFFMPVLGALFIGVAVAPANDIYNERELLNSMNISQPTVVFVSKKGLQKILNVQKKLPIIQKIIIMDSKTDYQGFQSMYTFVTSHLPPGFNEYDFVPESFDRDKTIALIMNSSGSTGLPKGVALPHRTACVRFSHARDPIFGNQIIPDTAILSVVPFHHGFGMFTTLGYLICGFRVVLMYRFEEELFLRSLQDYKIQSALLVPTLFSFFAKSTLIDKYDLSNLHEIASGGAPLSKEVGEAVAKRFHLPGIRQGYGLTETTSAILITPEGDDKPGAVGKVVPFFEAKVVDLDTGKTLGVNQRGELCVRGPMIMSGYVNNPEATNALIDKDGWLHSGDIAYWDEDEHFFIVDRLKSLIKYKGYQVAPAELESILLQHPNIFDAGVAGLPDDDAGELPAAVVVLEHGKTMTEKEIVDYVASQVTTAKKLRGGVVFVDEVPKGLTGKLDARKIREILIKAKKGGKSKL

On to `CCOc1ccc2c(c1)C(=NNC(=O)c1ccncc1)c1cc(OCC)ccc1-2`, for which the EC50 (as a rule, the midpoint of the concentration-response curve) in data set [1] is 0.825 µM (active); in [2], 0.894 µM (active); in the data set with Streptococcus, 3.66 µM (active); in data set [4], > 60 µM (inconclusive). Also, the AC50 (usually the concentration giving half of the maximal activity seen) in data set [3] is 26 µM (active).
Turning to `COc1ccc(C(=O)Nc2nnc(-c3ccco3)s2)cc1`, the IC50 (in data set [5]; in the data set “cells”) was > 67.5 µM (inactive) each time. Further, the AC50 in data set [6] is 3.75 µM (active); in data set [7] it was > 52 µM (inactive); in [8] it was > 52 µM (inactive); in data set [10], 3.67 µM (active). Moreover, the EC50 with HT-1080 is recorded as > 50 µM (not active); in data set [9] it was > 100 µM (not active).
Regarding `O=C(c1ccccc1)[C-](C(=O)c1ccc(Cl)cc1)[n+]1ccc2ccccc2c1`, the IC50 (commonly the concentration at which inhibition is half-maximal) in data set [11] is > 100 µM (inactive); in data set [12] it was 9.23 µM (active).
With `c1ccc(-c2nnc(SCCC3OCCCO3)o2)cc1`, the EC50 in [13] is 0.936 µM (active); in [14], 0.852 µM (active); in data set [17] it was 1.55 µM (active); in data set [19], 0.604 µM (active). For the same molecule, the AC50 result at Cytochrome P450 2C9 was “inconclusive”; in data set [18], > 52 µM (inactive). In addition, the IC90 (commonly the point of the concentration-response curve where the effect stands at 90%) in data set [15] was 62 µM (active); in data set [16] it was 8 µM (active); in data set [20], 8 µM (active).
For the molecule `O=C(Nc1ccccc1Cl)c1cccc(NC(=O)C2CCCC2)c1`, the figures for the IC50 in data set [21] and in [22] were 0.202 µM (active) and 5.78 µM (active), respectively.
`CCCc1cc(=O)oc2cc(OCc3ccc(C(=O)O)o3)ccc12`: the IC50 in data set [23] is 2.44 µM (active).
Consider `Cc1c(C(=O)C2=C(O)C(=O)N(CCN3CCOCC3)C2c2ccco2)cnn1-c1ccccc1` (stereo not given), for which, in [24], the IC50 is 21.1 µM (inactive).
In the case of `COc1ccc(C2=Nc3ccccc3NC(=O)C2N(C(=O)c2cc3ccccc3[nH]2)c2ccccc2)cc1` (stereo not given), the AC50 in the data set on HeLa was > 52 µM (inactive).
Turning to `Cc1ccc(-c2ccc3c(c2)O[C@H](CN(C)C(=O)CC2CC2)[C@H](C)CN([C@@H](C)CO)S3(=O)=O)cc1`, the AC50 in data set [25] was 10.4 µM (active).
